Article doi:10.1101/2024.08.25.609621 (bioRxiv, 2024)
pIC50, pKi: −log10 of the molar value. Values joined by “and” are separate entries in the source; they are usually repeats but may differ in a detail not shown here. Equal values may be shown once. Read-outs that look alike come from different tables or passages of the source.

How the values were obtained:
[1] = target: SARS-CoV-2 NSP3 macrodomain (Mac1) (Severe acute respiratory syndrome coronavirus 2, UniProt P0DTD1); experiment: biochemical; type: binding
[2] = target: SARS-CoV-2 NSP3 macrodomain (Mac1), P43 crystal form (Severe acute respiratory syndrome coronavirus 2, UniProt P0DTD1); type: binding; details: for binding by crystal soaking: P43 crystal form, repeated attempts, in words
[3] = Single dose, concentration 200 μM, read-out: SARS CoV-2 macrodomain HTRF assay: Average % competition
[4] = preliminary screen, compound at 200 μM, mean of 3-4 technical replicates, read-out: % competition in HTRF assay
[5] = ligand modeling in Mac1 crystal structure
[6] = dose-response, read-out: SARS CoV-2 macrodomain HTRF assay: IC50
[7] = dose-response, read-out: SARS CoV-2 macrodomain HTRF assay: Ki
[8] = from SARS CoV-2 macrodomain HTRF assay
[9] = stereoisomer(s) modeled in Mac1 crystal structure
[10] = SARS CoV-2 macrodomain HTRF assay
[11] = SARS CoV-2 macrodomain HTRF assay, dose-response, read-out: IC50
[12] = SARS CoV-2 macrodomain HTRF assay, dose-response, read-out: Ki
[13] = Single dose, concentration 200 μM, read-out: Average % competition
[14] = ligand modeling in Mac1 crystal soak
[15] = stereoisomer(s) of ligand modeled in Mac1 crystal structure

OC1CCN(c2ncnc3[nH]ccc23)C1 (stereo not shown) [AVI-3661]
inhibition at 200 µM [1, 3]: 11%
inhibition at 200 µM [1, 4]: 11%
PanDDA run, TFA/DMSO background map: 1-BDC ([2]; crystal soak 10 mM): 0.12
PanDDA run, TFA/DMSO background map: Hit ([2]; crystal soak 10 mM): TRUE
Number of isomers bound [2, 5]: 1

O[C@H]1CC[C@H]2CCN(c3ncnc4[nH]ccc34)[C@H]21 [AVI-5997]
pIC50 [1, 6]: 4.43
pKi [1, 7]: 4.47
Ligand efficiency (binding enery per heavy atom) [1, 8]: 0.34
Number of isomers bound [2, 5]: 1
Isomers modeled [2, 9]: SSR

CC(C)(O)C1C2CCC2CN1c1ncnc2[nH]ccc12 (stereo not shown) [AVI-4128]
pKi [1, 7]: 4.66
Ligand efficiency (binding enery per heavy atom) [1, 8]: 0.32
pIC50 ([1]; read-out: HTRF IC50): 4.62
Number of isomers bound [2, 5]: 1
Isomers modeled [2, 9]: SRR

Cc1c[nH]c2ncnc(NCC3(O)CCCC3)c12 [AVI-3760, 1-(((5-methyl-7H-pyrrolo[2,3-d]pyrimidin-4-yl)amino)methyl)cyclopentan-1-ol]
Hill slope ([1]; HTRF dose-response fit, Mac1): 1.1
Ligand efficiency (binding enery per heavy atom) [1, 10]: 0.36
Hill slope ([1]; SARS CoV-2 macrodomain HTRF assay, dose-response): 1.1
pIC50 [1, 11]: 4.72
pKi [1, 12]: 4.74
Occupancy difference (refined_occupancy - 2*(1-BDC)) [2]: 18
Refined ligand occupancy (%) [2]: 50%
1-BDC ([2]; PanDDA background density correction): 0.16
X-ray crystal structure ([2]; X-ray crystal structure determined (TRUE)): TRUE
Hit (PanDDA run, overall) ([2]; crystal soak 10 mM, P43 crystals): TRUE
Hit (PanDDA run, DMSO background map) ([2]; crystal soak 10 mM, DMSO background map): TRUE
1-BDC (PanDDA run, DMSO background map) ([2]; crystal soak 10 mM, DMSO background map, event 1): 0.19 and 0.16
Total number of conformations ([2]; ligand conformations modeled in Mac1 crystal structure): 2
Number of isomers bound [2, 5]: 1
2*(1-BDC) (%) ([2]; occupancy estimate from PanDDA BDC): 32%
Binding site ([2]; site of ligand in X-ray crystal structure): Adenosine
Isomers modeled [2, 9]: achiral,achiral

Cn1cc(CC(CO)Nc2ncnc3[nH]ccc23)cn1 (stereo not shown) [AVI-3657]
inhibition at 200 µM [1, 13]: 24%
inhibition at 200 µM [1, 4]: 24%
PanDDA run, TFA/DMSO background map: 1-BDC ([2]; crystal soak 10 mM): 0.09
PanDDA run, TFA/DMSO background map: Hit ([2]; crystal soak 10 mM): TRUE
Number of isomers bound [2, 14]: 1

O=C(O)C(F)(F)F.OCC1(Nc2ncnc3[nH]ccc23)CCC1 [AVI-3670]
Ligand efficiency (binding enery per heavy atom) [1, 10]: 0.38
pIC50 [1, 11]: 4.41
pKi [1, 12]: 4.44
PanDDA run, TFA/DMSO background map: 1-BDC ([2]; crystal soak 10 mM): 0.12
PanDDA run, TFA/DMSO background map: Hit ([2]; crystal soak 10 mM): TRUE
Number of isomers bound [2, 14]: 1
Isomers modeled [2, 15]: achiral,achiral

O=C(O)C(F)(F)F.OCC1(Nc2ncnc3[nH]ccc23)CC1 [AVI-3688]
inhibition at 200 µM [1, 13]: 72%
inhibition at 200 µM [1, 4]: 72%
PanDDA run, TFA/DMSO background map: 1-BDC ([2]; crystal soak 10 mM): 0.17
PanDDA run, TFA/DMSO background map: Hit ([2]; crystal soak 10 mM): TRUE
Number of isomers bound [2, 14]: 1
Isomers modeled [2, 15]: achiral

OCC(Cc1ccc(I)cc1)Nc1ncnc2[nH]ccc12 (stereo not shown) [AVI-3686]
inhibition at 200 µM [1, 13]: < 10%
inhibition at 200 µM [1, 4]: < 10%
PanDDA run, TFA/DMSO background map: 1-BDC ([2]; crystal soak 10 mM): 0.19
PanDDA run, TFA/DMSO background map: Hit ([2]; crystal soak 10 mM): TRUE
Number of isomers bound [2, 14]: 2
Isomers modeled [2, 15]: S,R

O=C(O)C(F)(F)F.OC[C@H]1CC2(CN1c1ncnc3[nH]ccc13)OCCO2 [AVI-3702]
inhibition at 200 µM [1, 3]: 17%
inhibition at 200 µM [1, 4]: 17%
Number of isomers bound [2, 14]: 1
PanDDA run, TFA/DMSO background map: 1-BDC ([2]; soak concentration 10 mM): 0.13
PanDDA run, TFA/DMSO background map: Hit ([2]; soak concentration 10 mM): TRUE

OC1CCC(O)(CNc2ncnc3[nH]ccc23)CC1 (stereo not shown) [AVI-6220]
pIC50 [1, 6]: 3.59
pKi [1, 7]: 3.62
Ligand efficiency (binding enery per heavy atom) [1, 8]: 0.26
Number of isomers bound [2, 5]: 1
Isomers modeled [2, 9]: rr,rr

CC1CCCC(O)(CNc2ncnc3[nH]ccc23)C1 (stereo not shown) [AVI-4307]
pIC50 [1, 6]: 4.40
pKi [1, 7]: 4.43
Ligand efficiency (binding enery per heavy atom) [1, 8]: 0.32
Number of isomers bound [2, 5]: 1

OC1(CNc2ncnc3[nH]ccc23)CCCOC1 (stereo not shown) [AVI-4311]
pIC50 [1, 6]: 3.77
pKi [1, 7]: 3.80
Ligand efficiency (binding enery per heavy atom) [1, 8]: 0.29
Number of isomers bound [2, 5]: 1

Nc1nnc(SCCn2c(=O)oc3ccccc32)s1 [AVI-296]
Isomers modeled [2]: achiral
Number of isomers bound [2]: 1

Cc1ccc(CC(CO)Nc2ncnc3[nH]ccc23)cc1 (stereo not shown) [AVI-3683]
inhibition at 200 µM [1, 13]: 14%
inhibition at 200 µM [1, 4]: 14%
Number of isomers bound [2, 14]: 2
Isomers modeled [2, 15]: S,R

Cc1c[nH]c2ncnc(NCC3(O)CCC(O)CC3)c12 (stereo not shown) [AVI-4329]
Number of isomers bound [2, 5]: 1
Isomers modeled [2, 9]: rr,rr

Nc1ncc(Cl)cc1S(=O)(=O)N1CCCC(O)C1 (stereo not shown) [AVI-295]
binding by crystal soaking [2]: failed to observe binding

c1ccc(-n2nnnc2CSc2nnc(NC3CC3)s2)cc1 [AVI-286]
Isomers modeled [2]: achiral
Number of isomers bound [2]: 1

CC(C)n1nnnc1SCc1c(C(=O)O)sc2cccc(F)c12 [AVI-291]
Number of isomers bound [2, 5]: 1
Isomers modeled [2, 9]: achiral

COC1CCCN(S(=O)(=O)c2cc(Cl)cnc2N)C1 (stereo not shown) [AVI-290]
binding by crystal soaking [2]: failed to observe binding

CC(C)(C)C1CCCN1c1ncnc2[nH]ccc12 (stereo not shown) [AVI-6000]
Number of isomers bound [2, 5]: 1

O[C@H]1COC[C@@H]1Nc1ncnc2[nH]ccc12 [AVI-1444, (3R,4S)-4-((7H-pyrrolo[2,3-d]pyrimidin-4-yl)amino)tetrahydrofuran-3-ol]
Number of isomers bound [2, 14]: 1

CC1CN(C(=O)c2ccccc2S(C)(=O)=O)c2cccnc2O1 (stereo not shown) [AVI-294]
Average % competition [1]: 13%

O=C(O)c1ccc2c(c1)C(NC(=O)C1CCn3ncnc3C1)CCC2 (stereo not shown) [AVI-333]
Average % competition [1]: 21%

c1ccn2c(Sc3ncnc4ccsc34)nnc2c1 [AVI-308]
Average % competition [1]: 0%

Cc1ccc2c(c1)CC[C@@H](C(=O)Nc1nnc3n1CCCC3)O2 [AVI-329]
Number of isomers bound [2]: 1

O=C(O)C(F)(F)F.OCC(CC1CCOCC1)Nc1ncnc2[nH]ccc12 (stereo not shown) [AVI-3676]
inhibition at 200 µM [1, 13]: < 10%
inhibition at 200 µM [1, 4]: < 10%

O=C(O)C1CN(C(=O)c2ccc3c(c2)OCCO3)CCO1 (stereo not shown) [AVI-323]
Average % competition [1]: 7%

Nc1ccc(F)c(C(=O)NCc2cnc(O)nc2O)c1F [AVI-312]
Average % competition [1]: <10%

O=C(O)C(F)(F)F.OC1c2ccccc2CC1Nc1ncnc2[nH]ccc12 (stereo not shown) [AVI-3634]
inhibition at 200 µM [1, 13]: < 10%
inhibition at 200 µM [1, 4]: < 10%

O=C(O)C(c1ccccc1)n1sc2ccccc2c1=O (stereo not shown) [AVI-288]
Number of isomers bound [2, 5]: 1

CC(=O)Nc1ccc(S(=O)(=O)CCCN2C(=O)CC(C)(C(C)C)C2=O)cc1 (stereo not shown) [AVI-299]
Average % competition [1]: 19%

O=C(Nc1ccsc1C(=O)O)c1ccc2c(c1)OCO2 [AVI-316]
Number of isomers bound [2, 14]: 1
Isomers modeled [2, 15]: achiral

Cc1ccc(C(=O)O)cc1NCc1ccc2nsnc2c1 [AVI-6018]
pIC50 ([1]; read-out: IC50): < 3.00

CNS(=O)(=O)c1cc(C(=O)N2CCOc3ccccc32)n(C)c1 [AVI-309]
Average % competition [1]: 0%

CN(C)C[C@@]1(O)CCCN(c2ncnc3[nH]ccc23)C1 [AVI-614]
inhibition at 200 µM [1, 13]: < 10%
inhibition at 200 µM [1, 4]: < 10%

CC1CCCC1OC(=O)Cn1cnc2c1c(=O)n(C)c(=O)n2C (stereo not shown) [AVI-335]
Average % competition [1]: <10%

OCC1CCC2(CCOCC2)CN1c1ncnc2[nH]ccc12 (stereo not shown) [AVI-4065]
pIC50 [1, 6]: 3.37
pKi [1, 7]: 3.40
Ligand efficiency (binding enery per heavy atom) [1, 8]: 0.21

NC(=O)N1CCC[C@H]1C(=O)Nc1ccc2ncnn2c1 [AVI-330]
Average % competition [1]: 14%

Cc1noc(NCc2cc3ccccc3nc2O)n1 [AVI-322]
Average % competition [1]: 0%

CNC(=O)c1ccc(NC(=O)C2CC(=O)Nc3ccccc32)cc1 (stereo not shown) [AVI-305]
Average % competition [1]: 0%

O=C(NCCCN1C(=O)NC2(CCCC2)C1=O)c1ccc(O)nc1 [AVI-300]
Average % competition [1]: 8%

CC(C)CCC(CO)Nc1ncnc2[nH]ccc12.O=C(O)C(F)(F)F (stereo not shown) [AVI-3668]
inhibition at 200 µM [1, 13]: 38%
inhibition at 200 µM [1, 4]: 38%
